The values below are quoted from earlier work in patent US20010046961A1, “Method for the treatment of solid tumors by albumin microparticles incorporating paclitaxel” (ACS DOBFAR S.p.A., priority 2000, published 2001).

The test system of this series is head and neck cancer. Conditions: traditional treatment with Paclitaxel, for example head and neck cancer.

`CC(=O)O[C@H]1C(=O)[C@@]2(C)[C@H]([C@H](OC(=O)c3ccccc3)[C@]3(O)C[C@H](OC(=O)[C@H](O)[C@@H](NC(=O)c4ccccc4)c4ccccc4)C(C)=C1C3(C)C)[C@]1(OC(C)=O)CO[C@@H]1C[C@@H]2O` [Paclitaxel]: the treatment response percentage is reported as 40%.
